Assay results taken from ChEMBL document CHEMBL1201862, “PubChem BioAssay data set” (2004).
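Protocol summary: plate cells (96-well), add compound at 5 concentrations, incubate 48 h, interpolate endpoints linearly. Here, GI50 denotes the concentration required for 50% inhibition of growth.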 Active and inactive are the calls of the source. Cut-off read from the data, not from the text of the source: active = GI50 up to about 1.1 µM and inactive = higher.

Key:
Experiment in all cases: DTP human tumour cell line panel, 48 h
[1] = system: 786-0
[2] = system: A549
[3] = system: ACHN
[4] = system: CAKI-1
[5] = system: CCRF-CEM
[6] = system: COLO 205
[7] = system: DLD-1
[8] = system: DMS-114
[9] = system: DMS-273
[10] = system: EKVX
[11] = system: HCC 2998
[12] = system: HCT-116
[13] = system: HCT-15
[14] = system: HOP-62
[15] = system: HOP-92
[16] = system: HT-29
[17] = system: IGROV-1
[18] = system: K562
[19] = system: KM-20L2
[20] = system: KM12
[21] = system: LOX IMVI
[22] = system: LXFL 529
[23] = system: M14
[24] = system: M19-MEL
[25] = system: MOLT-4
[26] = system: Malme-3M
[27] = system: NCI-H226
[28] = system: NCI-H23
[29] = system: NCI-H460
[30] = system: NCI-H522
[31] = system: OVCAR-3
[32] = system: OVCAR-4
[33] = system: OVCAR-5
[34] = system: OVCAR-8
[35] = system: RPMI-8226
[36] = system: RXF 631
[37] = system: SF-268
[38] = system: SF-295
[39] = system: SF-539
[40] = system: SK-MEL-28
[41] = system: SK-MEL-2
[42] = system: SK-MEL-5
[43] = system: SK-OV-3
[44] = system: SN12C
[45] = system: SNB-19
[46] = system: SNB-75
[47] = system: SNB-78
[48] = system: SW-620
[49] = system: TK-10
[50] = system: U-251
[51] = system: UACC-62
[52] = system: UO-31
[53] = system: XF498
[54] = system: HL-60
[55] = system: HOP-18
[56] = system: RXF 393
[57] = system: SR
[58] = system: UACC-257

C=C1C(=O)O[C@@H]2C[C@]3(C)[C@@H](C[C@H]12)[C@](C)(O)CC[C@@H]3O
GI50 [1]: 39.4 µM (inactive) | GI50 [2]: > 100 µM (inactive) | GI50 [3]: > 100 µM (inactive) | GI50 [4]: 66.1 µM (inactive) | GI50 [5]: 33.5 µM (inactive) | GI50 [6]: 38.8 µM (inactive) | GI50 [7]: 41 µM (inactive) | GI50 [8]: 39.2 µM (inactive) | GI50 [9]: 52.8 µM (inactive) | GI50 [10]: > 100 µM (inactive) | GI50 [11]: > 100 µM (inactive) | GI50 [12]: 36 µM (inactive) | GI50 [13]: 52.4 µM | GI50 [14]: > 100 µM (inactive) | GI50 [15]: 81.3 µM (inactive) | GI50 [16]: 33.3 µM (inactive) | GI50 [17]: > 100 µM (inactive) | GI50 [18]: 33.4 µM (inactive) | GI50 [19]: 38.9 µM (inactive) | GI50 [20]: 37.8 µM (inactive) | GI50 [21]: 55.7 µM (inactive) | GI50 [22]: 44 µM (inactive) | GI50 [23]: 31.5 µM (inactive) | GI50 [24]: 43.9 µM (inactive) | GI50 [25]: 57.1 µM (inactive) | GI50 [26]: 71.3 µM (inactive) | GI50 [27]: 48.3 µM (inactive) | GI50 [28]: 30.1 µM (inactive) | GI50 [29]: 23.7 µM (inactive) | GI50 [30]: 34.8 µM (inactive) | GI50 [31]: 37.9 µM (inactive) | GI50 [32]: > 100 µM (inactive) | GI50 [33]: > 100 µM (inactive) | GI50 [34]: 36.6 µM (inactive) | GI50 [35]: 52.7 µM (inactive) | GI50 [36]: 87.5 µM (inactive) | GI50 [37]: 42.4 µM (inactive) | GI50 [38]: > 100 µM (inactive) | GI50 [39]: 34 µM (inactive) | GI50 [40]: 65.2 µM (inactive) | GI50 [41]: 69.2 µM (inactive) | GI50 [42]: 91.8 µM (inactive) | GI50 [43]: > 100 µM (inactive) | GI50 [44]: 59.4 µM (inactive) | GI50 [45]: > 100 µM (inactive) | GI50 [46]: 53.3 µM (inactive) | GI50 [47]: 47.8 µM (inactive) | GI50 [48]: 45.9 µM (inactive) | GI50 [49]: 26.9 µM (inactive) | GI50 [50]: > 100 µM (inactive) | GI50 [51]: 32.5 µM (inactive) | GI50 [52]: > 100 µM (inactive) | GI50 [53]: 36.5 µM (inactive)

Cc1ccc(C(=O)CC2=Nc3nnc(CCCCCCCc4nnc5n4C(=O)C(CC(=O)c4ccc(C)cc4)=N5)n3C2=O)cc1
GI50 [1]: > 100 µM (inactive) | GI50 [2]: > 100 µM (inactive) | GI50 [3]: > 100 µM (inactive) | GI50 [4]: > 100 µM (inactive) | GI50 [5]: > 100 µM (inactive) | GI50 [6]: > 100 µM (inactive) | GI50 [7]: > 100 µM (inactive) | GI50 [8]: > 100 µM (inactive) | GI50 [10]: > 100 µM (inactive) | GI50 [11]: > 100 µM (inactive) | GI50 [12]: > 100 µM (inactive) | GI50 [13]: > 100 µM | GI50 [54]: > 100 µM (inactive) | GI50 [55]: > 100 µM (inactive) | GI50 [14]: > 100 µM (inactive) | GI50 [16]: > 100 µM (inactive) | GI50 [17]: > 100 µM (inactive) | GI50 [18]: > 100 µM (inactive) | GI50 [19]: > 100 µM (inactive) | GI50 [20]: > 100 µM (inactive) | GI50 [21]: > 100 µM (inactive) | GI50 [22]: > 100 µM (inactive) | GI50 [23]: > 100 µM (inactive) | GI50 [24]: > 100 µM (inactive) | GI50 [25]: > 100 µM (inactive) | GI50 [26]: > 100 µM (inactive) | GI50 [27]: > 100 µM (inactive) | GI50 [28]: > 100 µM (inactive) | GI50 [29]: > 100 µM (inactive) | GI50 [30]: > 100 µM (inactive) | GI50 [31]: > 100 µM (inactive) | GI50 [32]: > 100 µM (inactive) | GI50 [33]: > 100 µM (inactive) | GI50 [34]: > 100 µM (inactive) | GI50 [35]: > 100 µM (inactive) | GI50 [56]: > 100 µM (inactive) | GI50 [36]: > 100 µM (inactive) | GI50 [37]: > 100 µM (inactive) | GI50 [38]: > 100 µM (inactive) | GI50 [39]: > 100 µM (inactive) | GI50 [40]: > 100 µM (inactive) | GI50 [42]: > 100 µM (inactive) | GI50 [43]: > 100 µM (inactive) | GI50 [44]: > 100 µM (inactive) | GI50 [45]: > 100 µM (inactive) | GI50 [46]: 24.2 µM (inactive) | GI50 [57]: > 100 µM (inactive) | GI50 [48]: > 100 µM (inactive) | GI50 [49]: > 100 µM (inactive) | GI50 [50]: > 100 µM (inactive) | GI50 [58]: > 100 µM (inactive) | GI50 [51]: > 100 µM (inactive) | GI50 [52]: > 100 µM (inactive) | GI50 [53]: > 100 µM (inactive)

COc1cc(C2C3=C(CCC3=O)Oc3cc4c(cc32)OCO4)cc(OC)c1OC (configuration not stated)
GI50 [2]: 0.448 µM (active) | GI50 [3]: 0.337 µM (active) | GI50 [4]: 0.222 µM (active) | GI50 [5]: 0.318 µM (active) | GI50 [6]: 0.336 µM (active) | GI50 [8]: 0.218 µM (active) | GI50 [9]: 0.158 µM (active) | GI50 [10]: 0.422 µM (active) | GI50 [12]: 0.391 µM (active) | GI50 [13]: 0.256 µM | GI50 [54]: 0.204 µM (active) | GI50 [55]: > 100 µM (inactive) | GI50 [14]: 0.0324 µM (active) | GI50 [15]: 0.036 µM (active) | GI50 [16]: 0.279 µM (active) | GI50 [17]: 0.67 µM (active) | GI50 [18]: 0.138 µM (active) | GI50 [19]: 0.238 µM (active) | GI50 [21]: 0.491 µM (active) | GI50 [23]: 0.349 µM (active) | GI50 [24]: 0.412 µM (active) | GI50 [26]: 1.44 µM (inactive) | GI50 [28]: 0.39 µM (active) | GI50 [29]: 0.358 µM (active) | GI50 [31]: 0.136 µM (active) | GI50 [32]: 10 µM (inactive) | GI50 [33]: 0.458 µM (active) | GI50 [34]: 0.596 µM (active) | GI50 [56]: 0.54 µM (active) | GI50 [36]: 0.367 µM (active) | GI50 [38]: 0.109 µM (active) | GI50 [40]: 0.429 µM (active) | GI50 [42]: 0.237 µM (active) | GI50 [43]: 0.28 µM (active) | GI50 [44]: 0.593 µM (active) | GI50 [45]: 0.692 µM (active) | GI50 [46]: 0.038 µM (active) | GI50 [47]: 0.706 µM (active) | GI50 [48]: 0.285 µM (active) | GI50 [49]: 0.417 µM (active) | GI50 [50]: 0.366 µM (active) | GI50 [58]: 0.406 µM (active) | GI50 [51]: 0.141 µM (active) | GI50 [52]: 0.321 µM (active) | GI50 [53]: 0.122 µM (active)
